The test system of test [1] is MDA-MB-231 LM2-4 breast cancer cells. The test can be described thus: CAIX inhibitor with and without paclitaxel: tumor volume, lung metastases (IVIS) and EpCAM+ population (FACS). The class given is in vivo, NOD-SCID mice. Particulars: tumors excised at humane end point, vs vehicle controls, three tumors per group. The method, then: MDA-MB-231 LM2-4 Luc+ cells were implanted into NOD/SCID mice, tumors were established for 10 days and treatment was then initiated. Paclitaxel was administered by i.v. injection and MST-104 was provided by i.p. injection according to the dosing schedule outlined in the graph (arrows). n=7-8/group. *P<0.02, **P<0.002.
Heat maps indicating metastases are overlaid on grayscale images of the lungs.
The mean total photon flux±SEM for each group is shown.
FIGS. 29A-29E show representative FACS data. NOD-SCID mice mammary fat pad were inoculated with MDA-MB-231 LM2-4 breast cancer cells. Mice were IV dosed with Paclitaxel, or MST-104, or both drugs in combination, or vehicle. At the humane end point, tumours were excised and the viable EpCAM positive population was assessed by FACS.
At the humane end point, tumors were excised and the viable EpCAM positive population was assessed by FACS. […]
All animal procedures and studies were carried out in accordance with protocols approved by the Institution Animal Care Committee at the BC Cancer Research Centre and the University of British Columbia (Vancouver, BC, Canada). […] Primary tumor growth rates were calculated from caliper measurements using the modified ellipsoid formula (L×W2)/2. Tumor formation and metastasis progression was monitored and quantified using bioluminescent imaging as previously described (Lou, McDonald et al. 2011). […]

Test [2] concerns MDA-MB-231 LM2-4Luc+ primary breast tumor xenografts. The experiment in a line: Primary tumor growth of orthotopic breast tumor xenografts. The class given is in vivo, NOD/SCID mice. Particulars: 38 mg/kg MST-104 or 30 mg/kg MST-205, vs vehicle controls, n=8/group. Here is the method: FIG. 21 is a graphical representation of in vivo tumor growth. MDA-MB-231 LM2-4luc+ were implanted orthotopically into NOD/SCID mice. When tumors reached an average of […], animals received either vehicle, 38 mg/kg MST-104 or 30 mg/kg MST-205. Subsequent tumor growth was monitored. n=8/group.*P<0.02, **P<0.01.
All animal procedures and studies were carried out in accordance with protocols approved by the Institution Animal Care Committee at the BC Cancer Research Centre and the University of British Columbia (Vancouver, BC, Canada). For primary breast tumor xenografts, 2×10^6 MDA-MB-231 LM2-4Luc+ variant cells were suspended in a 50% Matrigel™/PBS solution and implanted orthotopically in 6-8 week-old female NOD.CB17-prkdcscid/J mice as previously described (Lou, McDonald et al. 2011). Therapy was initiated when tumors reached 200 mm^3. Primary tumor growth rates were calculated from caliper measurements using the modified ellipsoid formula (L×W2)/2. Tumor formation and metastasis progression was monitored and quantified using bioluminescent imaging as previously described (Lou, McDonald et al. 2011).
To evaluate the effect of CAIX inhibition on tumor growth and cancer stem cell expansion in vivo, primary breast tumor xenografts were established using a variant of the MDA-MB-231 cell line, MDA-MB-231 LM2-4Luc+. […] Tumor growth was assessed by caliper measurement and IVIS imaging.

Test [3] has as its system EpCAM+ population of MDA-MB-231 LM2-4Luc+ tumors. The test can be described thus: EpCAM+ cancer stem cell population of excised primary tumors by FACS. Format: in vivo, NOD/SCID mice. The note with it: 27 days, 38 mg/kg MST-104 or 30 mg/kg MST-205, vs vehicle (mean 10% EpCAM+). The method, then:
FIGS. 22A and 22B are representative FACS plots (FIG. 22A) and a bar graph (FIG. 22B), showing the mean changes in EpCAM+ cells±SEM, from 3 mice. MDA-MB-231 LM2-4luc+ were implanted orthotopically into NOD/SCID mice. When tumors reached an average of […], animals received either vehicle or 38 mg/kg MST-104. After 27 days, primary tumors were removed, dissociated and EpCAM+ cell population assessed by FACS analysis. Statistical significance was confirmed using T-test. ***P<0.0331, **P<0.0224.
FIGS. 23A and 23B are representative FACS plots (FIG. 23A) and a bar graph (FIG. 23B) showing MDA-MB-231 LM2-4luc+ cells that were implanted orthotopically into NOD/SCID mice. […] After 27 days, primary tumors were removed, dissociated and EpCAM+ cell population assessed by FACS analysis. […]
All animal procedures and studies were carried out in accordance with protocols approved by the Institution Animal Care Committee at the BC Cancer Research Centre and the University of British Columbia (Vancouver, BC, Canada). […] Primary tumor growth rates were calculated from caliper measurements using the modified ellipsoid formula (L×W2)/2. Tumor formation and metastasis progression was monitored and quantified using bioluminescent imaging as previously described (Lou, McDonald et al. 2011).
The effect of CAIX inhibition on the primary tumor cancer stem cell population in vivo was quantified. […]

Test [4] has as its system parental 4T1 CD44+CD24−/low cells. The test can be described thus: E-cadherin immunostaining of FACS-sorted 4T1 populations cultured in hypoxia with or without CAIX inhibitor. Format: cell-based, mouse. The note with it: hypoxia 5 days, 50 μM MST-104, vs vehicle. The method, then: FIG. 20 are images of parental 4T1 cells cultured as TSs in normoxia, disaggregated, stained for CD44, CD24 and collected by FACS. Viable CD44+CD24−/low or CD44−CD24+ cells were collected and cultured on glass coverslips in hypoxia for 5 days, with and without 50 μM MST-104, fixed and assessed by immunostaining for expression of E-cadherin.
4T1 TSs were incubated with trypsin, washed once in HF buffer (HBSS containing 2% Fetal Bovine Serum), then stained with anti-CD24-APC and anti-CD44-PECy7 using 0.3 μl of antibody per […] in 100 ul HF, and incubated on ice for 10 min. Following incubation, cells were washed once with HF buffer and resuspended in 300 ul HF buffer containing 4′,6-diamidino-2-phenylindole (DAPI; final concentration, 1 μg/ml). Cells were separated on an Aria™ cell sorter (BD Biosciences, San Jose, Calif., USA). Live cells were gated on the basis of forward and side scatter, and single cells were gated on the basis of forward scatter and pulse width. Gates were determined by analysis of unstained cells, isotype specific controls, and single stains. The CD44+CD24−/low or […] cells were not assessed for purity due to the low numbers of cells obtained. The cell counter of the flow cytometers was used to determine cell numbers. Cells were collected into DMEM media or HF buffer. […]

Test [5] relates to mTORC1 signaling pathway in MDA-MB-231 LM2-4Luc+ tumor cells. The experiment in a line: Western blot of mTOR pathway components in tumor cells isolated from treated tumor-bearing mice. Further details: species or system NOD/SCID mice. Particulars: in vivo treated tumors. The text has this:
Levels of expression of Actin and GAPDH are shown as loading controls.
To assess the effect of inhibition of CAIX activity on the mTOR pathway by breast cancer cells in vivo, orthotopic human primary breast tumors using MDA-MB-231 LM2-4Luc^+ cells were established in NOD/SCID mice and treated tumor-bearing animals with vehicle or the CAIX-specific inhibitor MST-104. At the experimental end point, primary tumors were removed, dissociated and viable tumor cells lysed and subjected to Western blotting (Lock, McDonald et al. 2012). […] Raptor expression was not regulated following CAIX inhibition in vivo (Raptor/Actin densitometry: Vehicle 0.64 mean±0.05 SEM; U-104 mean 0.69±0.14 SEM).

Test [6] relates to parental 4T1 cell line. The experiment in a line: Tumorsphere (TS) formation from doubling dilutions, minimum number of cells required to form a TS. The class given is cell-based, mouse. Particulars: parental 4T1, hypoxia, 7 days, 200 μM CAI17 (FIG. 6) vs vehicle. The method, then:
FIG. 6 is a graph of the number of cells required to initiate TS growth. Parental 4T1 were seeded at doubling dilutions and cultured under TS-forming conditions with 200 μM CAI17 or vehicle added, in normoxia or hypoxia. Mean±SEM of three independent experiments is shown. Statistical significance was confirmed using T-test, *P<0.001, **P<0.0060.
For culture in hypoxia, cells were maintained in 1% O2 and 5% CO2 balanced with N2 at 37 degrees C. in a humidified incubator in a sealed anaerobic workstation. Stable depletion of murine CAIX in 4T1 cells was carried out as described previously (Lou, McDonald et al. 2011).
Cultured 4T1 cells were grown as monolayers with twice weekly sub-cultivation in DMEM (Gibco) containing 5% fetal bovine serum (FBS) (Sigma). Subsequently, parental, shNS and shCAIX 4T1 were cultured as Tumor Spheres (TSs) in Mammocult™ media (StemCell Technologies, Vancouver, B.C., Canada) as per the manufacturer's instructions (Lock, McDonald et al. 2012). Alternatively, for spinner culture TS growth, monolayer cells were trypsinized and single-cell suspensions were incubated at 2×10^5 to 4×10^5 cells/ml in sealed glass spinner culture flasks (Bellco, Vineland, N.J.) under constant rotation, at 150 RPM, 37° C. in DMEM (5% FBS) pre-equilibrated to 5% CO2 as previously described (Oloumi, MacPhail et al. 2000). Cultures were grown for up to 3 weeks. […]

From patent US10195174B2, “Carbonic anhydrase IX-related markers and use thereof” (SIGNALCHEM LIFESCIENCES CORPORATION, priority 2011, dated 2019) come the findings set out here.

Consider `NS(=O)(=O)c1ccc(NC(=O)Nc2ccc(F)cc2)cc1` [MST-104], for which the “viable EpCAM positive population (mean percentage of EpCAM+ CSC)” value in test [1] is “significant decrease”. In addition, the “primary tumor growth (tumor volume)” value in test [2] is reported as “significant inhibition of primary tumor growth”. Moreover, in test [3], the “EpCAM+ population of primary tumors” value was “statistically significant reduced EpCAM+ population”. In test [4], the E-cadherin staining entry was “robust E-cadherin staining”. Also, in test [5] (Western blot, vs vehicle), the Raptor expression entry was “not regulated”; the “expression of the mTORC1 component mTOR” value is listed as “abolished”; the mTORC1 signaling pathway result is given as “inhibition of the mTORC1 signaling pathway”; the “phosphorylation and expression of 4EBP1” value is “depleted phosphorylation and expression”. The “phosphorylation of Ser939 TSC2” value in test [5] (Western blot, vs vehicle) was “reduced phosphorylation”. Also, the Raptor/Actin densitometry in test [5] (mean ± SEM (vehicle 0.64 ± 0.05)) is listed as 0.69±0.14.
Regarding `NS(=O)(=O)c1ccc(CCNC(=S)Nc2ccc(-c3c4ccc(=O)cc-4oc4cc(O)ccc34)c(C(=O)O)c2)cc1` [CAI017], the “number of seeding cells required to form a TS” value in test [6] is on record as “significantly increased”.
For the molecule `CC(=O)O[C@H]1C(=O)[C@@]2(C)[C@H]([C@H](OC(=O)c3ccccc3)[C@]3(O)C[C@H](OC(=O)[C@H](O)[C@@H](NC(=O)c4ccccc4)c4ccccc4)C(C)=C1C3(C)C)[C@]1(OC(C)=O)CO[C@@H]1C[C@@H]2O` [paclitaxel, reference compound], the “viable EpCAM positive population (mean percentage of EpCAM+ CSC)” value in test [1] was “increase in the mean percentage of EpCAM+CSC”.
